# Data: US20200338158A1, “Therapeutic Drug for Non-Alcoholic Fatty Liver Disease” (Shanghai Hep Pharmaceutical Co., Ltd., priority 2017, published 2020)
# “Also recorded” adds a separate entry of the source.
# Assays:
# Type in all cases: in vivo
# C57BL6 mice [1] = assay: Liver weight and gross liver observation, mouse NASH model (high fat feed + high sugar water)
# From the text: (§1) In this example, a mouse nonalcoholic steatohepatitis (NASH) model was used to evaluate the effect of hepalatide (L47) on pathological changes and metabolism level of NASH, and to determine whether L47 can improve the pathological changes of NASH, so as to provide reference for pharmacodynamic evaluation of L47 before clinical treatment.
# 4.1.2 Model group (HFC-F/G): high fat feed+high sugar water, 9 mice in total, wherein 3 mice were sacrificed at week 8, and 6 mice were sacrificed at week 16.
# 4.1.3 Low dose group 1 (HFC-F/G+HL1): high fat feed+high sugar water+L47 20 mg/kg (10 mg/kg*2/d, i.e. once in the morning and once in the afternoon), 10 mice in total, wherein 3 mice were sacrificed at week 8, and 7 mice were sacrificed at week 16.
# 4.1.4 High dose group 1 (HFC-F/G+HH1): high fat feed+high sugar water+L47 60 mg/kg (30 mg/kg*2/d, i.e. once in the morning and once in the afternoon), 10 mice in total, wherein 3 mice were sacrificed at week 8, and 7 mice were sacrificed at week 16.
# 4.1.5 Low dose group 2 (HFC-F/G+HL2): high fat feed+high sugar water+L47 20 mg/kg (10 mg/kg*2/d, i.e. once in the morning and once in the afternoon, with pharmacologic intervention started 8 weeks after initiation of the experiment), 5 mice in total, which are sacrificed after 16 weeks.
# 4.1.6 High dose group 2 (HFC-F/G+HH2): high fat feed+high sugar water+L47 60 mg/kg (30 mg/kg*2/d, i.e. once in the morning and once in the afternoon, with pharmacologic intervention started 8 weeks after initiation of the experiment), 5 mice in total, which are sacrificed after 16 weeks.
# Route of administration: subcutaneous injection.
# At week 8 and week 16, liver was separated by dissection after anesthesia and blood collection, and pathological changes of liver tissues and accumulation of abdominal fat were grossly observed by the naked eye.
# C57BL6 mice [2] = assay: Glucose tolerance, fasting insulin and insulin resistance index, mouse NASH model; settings: for blood glucose level in glucose tolerance test: treatment groups vs model group; for fasting serum insulin level / insulin resistance HOMA-RI level: vs model group
# From the text: As used herein, homeostatic model assessment (HOMA) index may refer HOMA-IR (quantifying the level of insulin resistance) index. The value of HOMA-IR can be calculated by following the formula of: HOMA-IR=[(blood glucose expressed in mmol/L)×(serum insulin expressed in mU/L)]/22.5.
# as §1
# 5.2.3 Insulin ELISA Test Kit, Cat No.: EZRMI-13K, Millipore Company.
# At week 8 and week 16, fasting blood glucose and glucose tolerance (subcutaneous injection of glucose: 2.5 mg/g, preparation concentration: 250 mg/ml) were measured in mice, blood glucose levels were measured at 0, 30, 60, 90 and 120 min after the injection of glucose, and insulin resistance index was calculated according to the fasting insulin level.
# C57BL6 mice [3] = assay: Blood (serum) biochemistry test, mouse NASH model
# From the text: as §1
# Total cholesterol (TC), triglyceride (TG), total bilirubin (TBIL), high-density lipoprotein cholesterol (HDL-C), low-density lipoprotein cholesterol (LDL-C), alkaline phosphatase (ALP), albumin (ALB), aspartate aminotransferase (AST) and alanine aminotransferase (ALT) were provided by Shanghai Adicon Company and tested by automatic biochemical analyzer.
# Total bile acid (TBA), very low density lipoprotein (VLDL): provided by Nanjing Jiancheng Bioengineering Institute.
# At week 8 and week 16, blood was taken from fasted mice (fasted for 12 hours) after anesthesia, and levels of serum TG, TC, ALB, ALP, ALT, AST, HDL-C, LDL-C, VLDL, TBIL, TBA, insulin (Ins) were measured.
# C57BL6 mice [4] = assay: Quantitative CT of body fat deposition, mouse NASH model; settings: week 16; for subcutaneous fat (CT): vs model group
# From the text: as §1
# Quantitative CT was used to locate and quantify subcutaneous, visceral and brown fat in mice at week 16.
# C57BL6 mice [5] = assay: Liver biochemistry test, mouse NASH model
# From the text: as §1
# Hydroxyproline and free fatty acid (FFA) kits (Cat No.: A030-3 and A042-1, respectively) were provided by Nanjing Jiancheng Bioengineering Research Institute;
# Triglyceride (TG) and cholesterol (TC) (Cat No.: E1013-105 and E1015 respectively) were provided by Applygen Technologies Inc.
# At week 8 and week 16, liver was taken and levels of TG, TC, free fatty acid (FFA), hydroxyproline (HYP) were measured.
# [6] = week 16, vs model group, HL2 (L47 10 mg/kg*2/d s.c., started after 8 weeks), p<0.05
# [7] = week 16, treatment groups vs model group (conclusions)
# [8] = week 16, HH2 (L47 30 mg/kg*2/d s.c., started after 8 weeks), p<0.001
# [9] = week 16, HL2 (L47 10 mg/kg*2/d s.c., started after 8 weeks)
# [10] = week 8, treatment groups (HL1, HH1) vs model group
# [11] = week 8, treatment groups vs model group
# [12] = week 8, vs model group, HL1 (L47 10 mg/kg*2/d s.c. from start)
# [13] = week 16, treatment groups vs model group
# [14] = week 16, vs model group, HH2 (L47 30 mg/kg*2/d s.c., started after 8 weeks), 30 mg/kg
# [15] = week 16, vs model group, HL1 (L47 10 mg/kg*2/d s.c. from start)
# [16] = week 16, vs model group, high dose group 1 (L47 30 mg/kg*2/d s.c. from start), 30 mg/kg
# [17] = treatment groups vs model group
substance,measurement,setting,value
hepalatide [L47],"general observation of liver change (color, weight)","C57BL6 mice [1]; treatment groups vs model group, week 8 implied",improved
same,liver weight,"C57BL6 mice [1]; week 8, each group (HL1, HH1)",no significant difference
same,"general observation of liver change (color, weight)","C57BL6 mice [1]; week 16, low dose group 2 and high dose group 2 vs model group",liver colors tended to be normal
same,liver weight,C57BL6 mice [1]; [6],decreased significantly
same,blood glucose level in glucose tolerance test,"C57BL6 mice [2]; week 8, 90 min after glucose, p<0.05, p<0.01",significantly decreased
same,blood glucose level in glucose tolerance test,"C57BL6 mice [2]; week 8, 120 min after glucose, p<0.01",significantly decreased
same,blood glucose level in glucose tolerance test,"C57BL6 mice [2]; week 16, 90 min after glucose",decreasing trend
same,blood glucose level in glucose tolerance test,"C57BL6 mice [2]; week 16, 120 min after glucose",decreasing trend
same,blood glucose,C57BL6 mice [2]; [7],decreased
same,fasting serum insulin level,"C57BL6 mice [2]; week 16, HH1 (L47 30 mg/kg*2/d s.c. from start), p<0.001",significantly decreases
same,insulin resistance HOMA-RI level,"C57BL6 mice [2]; week 16, HH1 (L47 30 mg/kg*2/d s.c. from start), p<0.05",significantly decreases
same,insulin resistance HOMA-RI level,"C57BL6 mice [2]; week 16, HH2 (L47 30 mg/kg*2/d s.c., started after 8 weeks)",decreasing trend
same,fasting serum insulin level,C57BL6 mice [2]; [8],significantly decreases
same,fasting serum insulin level,"C57BL6 mice [2]; week 16, HL1 (L47 10 mg/kg*2/d s.c. from start), p<0.001",significantly decreases
same,insulin resistance HOMA-RI level,"C57BL6 mice [2]; week 16, HL1 (L47 10 mg/kg*2/d s.c. from start), p<0.05",significantly decreases
same,fasting serum insulin level,C57BL6 mice [2]; [9],decreasing trend
same,insulin resistance HOMA-RI level,C57BL6 mice [2]; [9],no significant difference
same,serum LDL-C level,"C57BL6 mice [3]; at week 20 (so in the source), HH1 (L47 30 mg/kg*2/d s.c. from start), p<0.01",decreased
same,serum LDL-C level,"C57BL6 mice [3]; at week 20 (so in the source), HL1 (L47 10 mg/kg*2/d s.c. from start), p≤0.001",decreased
same,serum HDL-C level,"C57BL6 mice [3]; at week 20 (so in the source), treatment groups except HH2, vs model group, p<0.01",decreased
same,serum LDL-C level,"C57BL6 mice [3]; week 8, HH1 (L47 30 mg/kg*2/d s.c. from start)",decreased
same,serum TC level,"C57BL6 mice [3]; week 8, HL1 (L47 10 mg/kg*2/d s.c. from start), p<0.05",decreased significantly
same,serum AST level,C57BL6 mice [3]; [10],decreasing trend; also recorded: decreased
same,serum TC level,C57BL6 mice [3]; [10],significantly decreased
same,serum TG level,C57BL6 mice [3]; [10],significantly decreased
same,serum ALT level,"C57BL6 mice [3]; week 8, treatment groups (HL1, HH1) vs model group, p≤0.001",significantly decreased
same,serum ALB level,C57BL6 mice [3]; [11],decreased
same,serum ALP level,C57BL6 mice [3]; [11],no significant difference
same,serum HDL level,C57BL6 mice [3]; [11],no significant difference
same,serum LDL level,C57BL6 mice [3]; [11],decreased
same,serum VLDL level,C57BL6 mice [3]; [11],no significant difference
same,serum HDL-C level,C57BL6 mice [3]; [12],decreased
same,serum LDL-C level,C57BL6 mice [3]; [12],decreased
same,serum ALB level,C57BL6 mice [3]; [8],slightly decreased
same,serum ALB level,"C57BL6 mice [3]; week 16, HL2 (L47 10 mg/kg*2/d s.c., started after 8 weeks), p<0.001",slightly decreased
same,serum ALP level,"C57BL6 mice [3]; week 16, among the groups",no significant difference
same,serum ALB level,"C57BL6 mice [3]; week 16, other groups (HL1, HH1)",no difference
same,serum VLDL level,"C57BL6 mice [3]; week 16, other groups except HL2 (HL1, HH1, HH2) vs model group",increased
same,serum TC level,"C57BL6 mice [3]; week 16, treatment groups (HL1, HH1, HL2, HH2) vs model group, p<0.001, p<0.001, p≤0.001, p<0.05",significantly decreased
same,serum TG level,C57BL6 mice [3]; [13],did not decrease; also recorded: no significant difference
same,serum HDL level,C57BL6 mice [3]; [7],decreased
same,serum LDL level,C57BL6 mice [3]; [7],decreased
same,serum VLDL level,C57BL6 mice [3]; [7],no significant difference
same,serum ALT level,C57BL6 mice [3]; [14],decreasing trends; also recorded: decreased significantly
same,serum AST level,C57BL6 mice [3]; [14],decreasing trends; also recorded: decreased significantly
same,serum ALT level,C57BL6 mice [3]; [15],did not decrease
same,serum AST level,C57BL6 mice [3]; [15],did not decrease
same,serum ALT level,C57BL6 mice [3]; [6],significantly decreased
same,serum AST level,C57BL6 mice [3]; [6],significantly decreased
same,serum ALT level,C57BL6 mice [3]; [16],did not decrease; also recorded: increasing trends
same,serum AST level,C57BL6 mice [3]; [16],did not decrease; also recorded: increasing trends
same,subcutaneous fat (quantitative body fat on CT scan),C57BL6 mice [4]; L47 treatment groups vs model group (conclusions),decreased significantly
same,brown fat (CT),C57BL6 mice [4]; [17],no significant difference
same,visceral fat (CT),C57BL6 mice [4]; [17],no significant difference; also recorded: no significant effect
same,subcutaneous fat (CT),C57BL6 mice [4]; HH1 (L47 30 mg/kg*2/d s.c. from start),decreased
same,subcutaneous fat (CT),"C57BL6 mice [4]; HH2 (L47 30 mg/kg*2/d s.c., started after 8 weeks)",decreased
same,subcutaneous fat (CT),"C57BL6 mice [4]; HL2 (L47 10 mg/kg*2/d s.c., started after 8 weeks)",decreased
same,liver FFA level,"C57BL6 mice [5]; week 8, high dose group vs model group, p<0.05",statistical significance
same,liver FFA level,C57BL6 mice [5]; [10],decreasing trends; also recorded: decreased significantly
same,liver hydroxyproline level,C57BL6 mice [5]; [10],decreasing trends; also recorded: reduced
same,liver TC level,"C57BL6 mice [5]; week 8, treatment groups (HL1, HH1) vs model group, p<0.001, p≤0.001",significantly decreased
same,liver TG level,"C57BL6 mice [5]; week 8, treatment groups (HL1, HH1) vs model group, p≤0.001, p<0.001",significantly decreased; also recorded: decreased significantly
same,liver hydroxyproline level,"C57BL6 mice [5]; week 16, HH1 (L47 30 mg/kg*2/d s.c. from start)",higher
same,liver hydroxyproline level,"C57BL6 mice [5]; week 16, HL1 (L47 10 mg/kg*2/d s.c. from start)",higher
same,liver TC level,"C57BL6 mice [5]; week 16, treatment groups (HL1, HH1, HL2, HH2) vs model group, p<0.001 each",significantly decreased
same,liver FFA level,C57BL6 mice [5]; [13],decreased; also recorded: decreasing trends
same,liver TG level,"C57BL6 mice [5]; week 16, vs model group, HH1 (L47 30 mg/kg*2/d s.c. from start)",decreasing trends
same,liver hydroxyproline level,"C57BL6 mice [5]; week 16, vs model group, HH2 (L47 30 mg/kg*2/d s.c., started after 8 weeks), more significant, p<0.05",decreased
same,liver TG level,"C57BL6 mice [5]; week 16, vs model group, HH2 (L47 30 mg/kg*2/d s.c., started after 8 weeks), p<0.05",significantly decreased
same,liver TG level,C57BL6 mice [5]; [15],decreasing trends
same,liver hydroxyproline level,"C57BL6 mice [5]; week 16, vs model group, HL2 (L47 10 mg/kg*2/d s.c., started after 8 weeks)",decreased
same,liver TG level,"C57BL6 mice [5]; week 16, vs model group, HL2 (L47 10 mg/kg*2/d s.c., started after 8 weeks), p<0.01",significantly decreased
